For data set [1], the system named is mouse liver cancer HAC cell line. The data set can be described thus: Enhancement of effectiveness of CP, mouse liver cancer HAC ascites model. Type of data set: in vivo, Kunming mice. To be noted: CP 50 mg/kg i.p. only (positive control). As to the method: Q-can oral liquid; mouse liver cancer HAC cell line; male Kunming mice weighing 20–25 g; commercial cyclophosphamide (CP).
Forty mice were randomly divided into 5 groups. In three test groups, 36%, 60% and 100% Q-can oral liquids (diluted with water) were given, respectively, while water was given in both control groups. On the 8th day, 0.2 ml HAC cancer cell suspensions (10^7/ml) were injected into the abdominal cavities of each mouse under aseptic condition. On the 1st, 3rd and 5th days after injection. CP (50 mg/kg) was injected i.p. into the mice in all test groups and positive control group. From the 9th day after injection, normal feeding was resumed as before the test. Date of death of each mouse was recorded, and the average life span and the rate of increase in life span were calculated. The rate of increase in life span (ILS %) is defined as following: […]

Another data set concerns Lewis mouse lung tumor. The protocol:
Concentrated Q-can oral liquid (containing specific branched-chain fatty acids 3.6 mg/ml); Female F1 mice (C57/B1 and DBA/2) weighing 18–22 g; Lewis mouse lung tumor.
The mice of the test group were administrated with concentrated Q-can oral liquid at a daily dose of 36 mg specific branched-chain fatty acids per kg weight for 10 days before transplantation of Lewis mouse lung tumor. All the mice were transplanted subcutaneously in the subaxillary region with a piece of Lewis tumor of approximately 2 mm in diameter. The treatments of intraperitoneal injection of chemotherapy drug Cytoxan (CTX) in 30 mg/kg were given once a day after transplantation over an 8 day period for the positive control group. The treatments for the normal control group were daily injection of normal saline for 8 days. The administration of concentrated Q-can oral liquid for the test group was initiated 10 days before tumor transplantation and continued for another 8 days. Finally all the animals were sacrificed by spinal elongation. Tumors were excised and body and tumor weights were recorded.

In data set [2] the test system is Human gastric adenocarcinoma SGC-7901 xenograft. The data set can be described thus: Human gastric adenocarcinoma SGC-7901 xenografted into nude mice. Format: in vivo, Balb/c-nu/nu athymia mice. The following applies: MMC 2.0 mg/kg i.p. Qd × 14. As to the method:
Female Balb/c-nu/nu athymia mice, 6 weeks old, weighing 18–22 g, housed in specific pathogen free (SPF) condition throughout the course of experiment; concentrated Q-can oral liquid contains 3.6 mg/ml specific branched-chain fatty acids; the drug used for positive control mitomycin C (MMC) was commercially available from Kyowa Hakko Kogyo Co., Ltd., Japan.
Human gastric adenocarcinoma SGC-7901 xenograft was established and maintained. For the experiment, the xenograft fragments of diameter of about 2 mm were inoculated subcutaneously into the right submaxillary regions of nude mice. The animals were randomly divided into five groups five days after inoculation. […] groups, respectively, while concentrated Q-can oral liquid was given in test groups once a day p.o., starting on the same day, at daily doses of 18, 36 and 72 mg branched-chain fatty acids per kg weight, respectively, for 14 days. Experiment was terminated 20 days post-implantation, and mice were sacrificed by spinal elongation. Tumors were removed and the weights of treated versus control tumors were compared. Inhibition rate was calculated. The experiment was repeated once.
On the technique in general: A xenograft is tissue or cells of one species grown in another, often human tumour cells in immunodeficient mice.

The test system of data set [3] is Human leukemia cell line K562. The data set can be described thus: MTT assay, inhibition of cell growth. The following applies: Homo sapiens, K562; 30 μg/ml; 24 hours; dissolved with NaOH solution, pH 7.5; read-out: Inhibitory rate (%) on K562 cell growth. Format: cell-based. The protocol: MTT assay was performed to test the cytotoxicity. The K562 and SGC7901 cells were maintained in exponential growth in RPMI 1640 medium supplemented with 15% heat-inactivated newborn calf serum. The cells were plated at a density of 2×10^4 cells/100 μl medium/well into 96-well plate with medium containing samples in five final concentrations (7.5, 15, 30, 60 and 90 μg/ml) for iso-C15 (either synthesized or extracted) and one final concentration (30 μg/ml) for the others. The media in control wells contained no samples. The cells were incubated at 37° C. in a highly humidified incubator under 5% CO2 atmosphere for 24 hours. The supernatant was removed by fast inversion of the plate. 20 μl of 5 mg/ml MTT solution were added into each well. Incubation was continued for 4 hours. DMSO 100 μl/well was added and the plate was vibrated for 10 minutes. A570nm was read at the Immunoreader BioTek EL311S.
The inhibition rate (%)=1−(mean A570nm in test wells/mean A570nm in control wells)
On the technique in general: Tetrazolium dyes change colour on reduction, which living cells bring about.

Data set [4] deals with MCF-7 human breast adenocarcinoma cells. As to the kind of experiment: Flow cytometry annexin V / PI apoptosis detection. Format: cell-based. The following applies: 60 μg/ml. The protocol:
(§1) Human cancer cell lines DU-145 (prostate cancer), K562 (leukemia), HCT116 (colon cancer), H1688 (lung cancer), SUN423 (hepatocarcinoma), MCF7 (breast cancer), CRL-1687 (pancreatic cancer), and SUN-1 (gastric cancer) were obtained from American Type Culture Collection (ATCC). 30 ml blood was collected from a health person and normal peripheral mononuclear cells were separated by Ficoll separation solution (Sigma). All cells were maintained in RPMI 1640, DMEM, or McCoy medium supplemented with 10% FCS, […] streptomycin and 100 u/ml penicillin. Normal human peripheral mononuclear cells, K562 and SUN-1 were suspended cells. After spinning at 1,500 RPM for 5 min, supernatants were discharged and cells were resuspended and expended in fresh medium. The other tumor cell lines were adherent cells and were dispersed with 0.05% trypsin/0.01% EDTA (Irvine Scientific, CA) for expansion. Cells were seeded in T75 flasks at 2×10^6 cells/flask in culture medium supplemented with 10% fetal bovine serum and incubated overnight at 37° C. with 5% CO2. The adherent cells attached to the plate were striped with disposable cell scrapers (Fisher Scientific) after treated either with 1% iso-C15, anteiso-C15 or control solution for 1, 2, 4, 8 and 24 hours and then combined with respective float cells. Cells were then prepared for flow cytometry analysis, in situ cell death detection, DNA fragmentation and Western blot assay followed the preparation methods for each assay. Cell pellets treated for 2 and 4 hr with either iso-C15 or control were also stored at −70° C. for future studies of gene regulation.
A flow cytometer (FACScan) with Consort 30 software for gating analysis (Becton Dickinson, San Jose, Calif.) was used. The Apoptosis Detection kit (R&D Systems) was used to quantitatively determine the percentage of cells undergoing apoptosis by virtue of their ability to bind annexin V and exclude propidium iodide (PI). Cells were washed in cold PBS twice and resuspended in binding buffer. Fluorescent-labeled annexin V and PI were added to the cells. The cells undergoing apoptosis, expressing phosphotidyiserine on the outer leaflet of cell membranes, would bind annexin V. The cells in later stage of apoptosis or necrosis, with a compromised cell membrane, would allow PI to bind to the cellular DNA. The resulting cells were immediately analyzed by flow cytometer equipped with a single laser emitting excitation light at 488 nm. The annexin V and PI generated signals can be detected in signal detector FL1 and FL2, respectively. […]

In data set [5] the test system is SNU-1 human gastric carcinoma cell lines. The data set can be described thus: Apoptosis morphology, H&E, light microscope. Format: cell-based. The following applies: 60 μg/ml, 8 hours. As to the method:
as §1, with “The adherent cells attached to the plate were striped with disposable cell scrapers (Fisher Scientific) after treated either with 1% iso-C15, anteiso-C15 or control solution for 1, 2, 4, 8 and 24 hours and then combined with respective float cells.” left out, “regulation. […]” for “regulation.”

Data set [6] deals with SNU-423 human hepatocellular carcinoma cells. As to the kind of experiment: Apoptosis morphology, light microscope. To be noted: 60 μg/ml, 24 hours. Type of data set: cell-based. The protocol: as §1, with “The adherent cells attached to the plate were striped with disposable cell scrapers (Fisher Scientific) after treated either with 1% iso-C15, anteiso-C15 or control solution for 1, 2, 4, 8 and 24 hours and then combined with respective float cells.” left out, “regulation. […]” for “regulation.”

The mark [7] stands for this setting: CTX 30 mg/kg i.p. once a day, 8 days.

On to `O=P1(N(CCCl)CCCl)NCCCO1` (stereo not drawn) [CP, cyclophosphamide], for which, in data set [1], the “ILS % (rate of increase in life span)” value was determined as 22.86%, the life span turned out to be 13.06 ± 3.03 days, the “mice No (>17 d)” value was 1 and the prolonged days is 2.44 ± 2.58 days.

What is called viability is a read-out of living cells in per cent, often relative to untreated cells. Low readings indicate more harm to the cells, high ones less harm to the cells. In the data set on Lewis mouse lung tumor (CTX 30 mg/kg i.p.), `O=P1(N(CCCl)CCCl)NCCCO1` (stereo not drawn) [CTX, Cytoxan] registered a body weight in. (initial) of 21.2 g. In the data set on Lewis mouse lung tumor (setting [7]), the TIR was found to be 62.6%, the body weight fi. (final) is 20.3 g and the “tumor weight mean ± SD” value turned out to be 0.71 ± 0.36 g. Further, in the data set with Lewis mouse lung tumor (CTX i.p. injection, 8-day period), the viability came to 70%.

For the compound `CO[C@@]12[C@H](COC(N)=O)C3=C(C(=O)C(C)=C(N)C3=O)N1C[C@@H]1N[C@@H]12` [MMC, mitomycin C], in data set [2] (Test I), the “Body wt. Fi.” value was determined as 22.0, the “Body wt. In.” value turned out to be 22.4, the Inhibition % came to 71.49% and the “Tumor wt. X ± SD” value was found to be 0.33 ± 0.24 g. In addition, in data set [2] (Test II), the “Body wt. Fi.” value is recorded as 21.1/21.1, the “Body wt. In.” value was 21.1/21.1, the Inhibition % is given as 73.51% and the “Tumor wt. X ± SD” value is reported as 0.30 ± 0.33 g.

For the compound `CCC(C)CCCCCCCCCC(=O)O` (stereo not drawn) [anteiso-C14, 11-methyltridecanoic acid], the inhibition at 30 µg/mL in data set [3] turned out to be 72.6%.

Consider `CCC(C)CCCCCCCCCCC(=O)O` (stereo not drawn) [anteiso-C15, 12-methyltetradecanoic acid], for which the figures for the “FL1/FL2 pattern (annexin V / PI), apoptosis” value in data set [4] (4 hours) and in data set [4] (24 hours) were “many cells were undergoing apoptosis” and “the majority of cells had already died”, respectively. Besides, the inhibition at 30 µg/mL in data set [3] is 73.1%. The “morphological changes indicative of apoptosis” value in data set [5] was “chromatin condensation and cytoplasmic granularity were noted”; in data set [6] it was “exhibited cell volume decrease due to shrinkage and bubbles inside the cell”.

`CCC(C)CCCCCCCCCCCC(=O)O` (stereo not drawn) [anteiso-C16, 13-methylpentadecanoic acid]: the inhibition at 30 µg/mL in data set [3] worked out at 70.7%.

For `CCC(C)CCCCCCCCCCCCCC(=O)O` (stereo not drawn) [anteiso-C18, 15-methylheptadecanoic acid], the inhibition at 30 µg/mL in data set [3] came to 71.7%.

With `CC(C)CCCCCCCCC(=O)O` [iso-C12, 10-methylundecanoic acid], the inhibition at 30 µg/mL in data set [3] was found to be 70.7%.

Consider `CC(C)CCCCCCCCCC(=O)O` [iso-C13, 11-methyllauric acid], for which the inhibition at 30 µg/mL in data set [3] turned out to be 71%.

For the compound `CC(C)CCCCCCCCCCC(=O)O` [iso-C14, 12-methyltridecanoic acid], the inhibition at 30 µg/mL in data set [3] was determined as 72.2%.

With `CC(C)CCCCCCCCCCCCC(=O)O` [iso-C16, 14-methylpentadecanoic acid], in data set [3], the inhibition at 30 µg/mL was 71.6%.

Take `CC(C)CCCCCCCCCCCCCC(=O)O` [iso-C17, 15-methylpalmitic acid]: the inhibition at 30 µg/mL in data set [3] worked out at 70.8%.

As for `CC(C)CCCCCCCCCCCCCCC(=O)O` [iso-C18, 16-methylheptadecanoic acid], in data set [3], the inhibition at 30 µg/mL was determined as 68.4%.

Regarding `CC(C)CCCCCCCCCCCCCCCC(=O)O` [iso-C19, 17-methylstearic acid], the inhibition at 30 µg/mL in data set [3] was determined as 69.2%.

As to `CC(C)CCCCCCCCCCCCCCCCC(=O)O` [iso-C20, 18-methylnonadecanoic acid], the inhibition at 30 µg/mL in data set [3] came to 62.6%.
